From patent publication US20150307530A1, “NOVEL MUCOLYTIC AGENTS” (PARION SCIENCES, INC., priority 2012, published 2015) come the findings set out here.

A word on the half-life: it is the time in which the quantity being followed falls by half.

Some results are limits rather than exact numbers.

Series [1] can be described thus: DTNB assay: rate of disulfide bond reduction. It is filed as biochemical. To be noted: for reducing kinetic for DTNB reduction compared with NAC and DTT / DTNB reducing kinetics as a function of pH: FIG. 3; for reducing kinetic for DTNB reduction compared with NAC and DTT: comparison with thiol reducing agents; for DTNB reducing kinetics as a function of pH: pH range relevant for mucosal surfaces (pH 6.0-7.5). The text has this: FIG. 2. Spectrophotometric studies monitored formation of reduced DTNB over time. Reaction rates, generated using second order kinetics, for each compound were compared as a function of reducing agent to substrate (DTNB) concentration at pH 6.5.
FIG. 3. Spectrophotometric studies monitored formation of reduced DTNB over time. Reaction rates, generated using second order kinetics, for each compound were over a pH range relevant for mucosal surfaces.
Mucin Agarose Gel Western Blots: Reducing agent stock solutions are made up in 100 mM Potassium Phosphate and are buffered to pH 6.5. The reducing agent stocks are diluted into saliva samples (pH 6.5) to achieve the final desired reducing agent concentration. […] The reactions are quenched using at least a 2-fold excess of N-ethylmaleimide and/or hydrogen peroxide. A 5× concentrated sample loading buffer is diluted into the samples to achieve a 1× concentration (1×TAE, 5% glycerol, 0.1% SDS, Bromophenol Blue). Samples (50 ug) are analyzed by electrophoresis on 0.9% agarose gels using a buffer system consisting of 1×TAE/0.1% SDS. […] Unreduced and reduced Muc5B are visualized using a polyclonal antibody directed towards Muc5B and a Protoblot II AP System with stabilized substrate. […] Each compound solution (10 uL) is added apically to primary hBEs for 6 hrs. The hBEs are lysed in RIPA buffer supplemented with protease inhibitor cocktail (Roche) and 1 mM PMSF. The samples are normalized to contain the same total amount of protein followed by addition of 2×SDS sample buffer (100 mM Tris-HCl (pH6.8)/4% SDS/0.05% Bromophenol Blue/20% glycerol). Samples (20 […]g) are analyzed by electrophoresis on a 10% SDS-PAGE gel and transferred to a nitrocellulose membrane. BiP levels are visualized using a polyclonal antibody directed towards BiP and the LiCor Odyssey imaging detection system. Thapsigargin (TG, 2.5 µM) served as a positive control for BiP induction. DTNB ASSAY: This assay determines the rate which a mucolytic agent can reduce a disulfide bond using 5,5-Dithiobis(2-nitrobenzoic acid). DTNB in various pH buffers and allows comparison of the kinetic rates of reducing agents. […] Max Abs412 was measured and then utilized to calculate the activity concentration.
The kinetics of disulfide bond reduction can be quantitative measured using 5,5′-dithiobis-(2-nitrobenzoic acid) (DTNB or Ellman's Reagent). DTNB contains an internal disulfide bond, which when reduced, gives rise to two molecules of TNB that can be monitored by […] at 412 nm.

Another series concerns the target Muc5B (Homo sapiens, UniProt Q9HC84). In words: Mucin agarose gel western blot: Muc5B reduction in saliva. The settings on record: 30 minute incubation, FIG. 4; for concentration producing Muc5B (mucin) reduction by downward gel shift: pH 6.5, agarose gel/western blot.
The next series deals with Balb-C mice. The experiment in a line: BALF cellularity after pulmonary aspiration in Balb-C mice. The settings on record: pulmonary aspiration (40 ul deposited dose), BALF at 4 and 24 hours post administration, all concentrations tested, FIG. 9. It is filed as in vivo. How it is done:
FIG. 9. Balb-C mice were administered Compound Ib at the indicated concentrations via pulmonary aspiration (40 ul deposited dose). Bronchoalveolar lavage fluid (BALF) was collected at 4 and 24 hours post administration and the total cellularity of the BALF was determined.

The nature of series [2]: Hydrogen peroxide incubation (oxygen free radical scavenging), read out by DTNB reduction. It is filed as biochemical. The settings on record: excess hydrogen peroxide, 60 second incubation; FIG. 10. Here is the method:
FIG. 10. Compound Ib was incubated with excess hydrogen peroxide to assess the ability of Compound Ib to scavenge oxygen free radicals. Following a 60 second incubation with hydrogen peroxide, the activity of Compound Ib was determined by its ability to reduce DTNB (Ellman's Reagent).

Series [3] can be described thus: Elimination of inhaled 14C-labeled NAC from the lungs in animal studies. It is filed as in vivo. To be noted: inhaled or intranasal, 14C-labeled NAC administered by inhalation, animal studies (unpublished observation). The text has this:
NAC, as a topical pulmonary therapeutic agent, is not optimal for the reduction of mucin disulfide bonds. […] For example, in the pH environment of the airway surface (measured in the range of pH 6.0 to 7.2 in CF and COPD airways), NAC exists only partially in its reactive state as a negatively charge thiolate (Jayaraman S, Song Y, Vetrivel L, Shankar L, Verkman A S. Noninvasive in vivo fluorescence measurement of airway-surface liquid depth, salt concentration, and pH. J Clin Invest. 2001; 107(3):317-24) (FIG. 3). […] The relatively low reducing activity at of NAC physiologic airway pH and a the short half-life of NAC on the lung surface provide an explanation for the lack of strong clinical evidence for effective mucus reduction in mucus obstructive diseases.

Protocol for Muc5B: Analysis of Muc5B reduction by western blot. Saliva was incubated with reducing agents at indicated concentrations for 30 min prior to agarose gel electrophoresis/western blot visualization of unreduced and reduced Muc5B. Both saliva and compounds were buffered to pH 6.5.
Quantitation of Muc5B reduction by western blot.
Saliva samples were aliquoted and incubated with the indicated concentrations of reducing agents (FIG. 4). After a 30 minute incubation, the reducing agents were quenched by the addition of a 10-fold molar excess of N-ethylmaliamide (NEM). The mucus samples were separated by agarose gel electrophoresis and analyzed by western blot.

As to `NCCP(c1ccccc1)c1ccccc1` [If, 2-(diphenylphosphino)ethanamine], in series [1], the “reducing kinetic for DTNB reduction compared with NAC and DTT” value was “faster reducing kinetic”; the “DTNB reducing kinetics as a function of pH” value (shortened to “DTNB reducing kinetics”) was “fastest reducing kinetic tested”.

`O[C@H](CS)[C@H](O)CS` (racemic) [DTT, dithiothreitol, reference compound]: the “DTNB reducing kinetics” value in series [1] is “pH-dependent increase in DTNB reduction”. Also, at Muc5B, the “concentration producing Muc5B (mucin) reduction by downward gel shift” value is reported as at least 3 mM.

As to `O=C(O)CCP(CCC(=O)O)CCC(=O)O` [Compound Ib, 3,3′,3″-phosphinetriyltripropanoic acid], in the series with Balb-C mice, the “total cellularity of the BALF compared to vehicle” value is recorded as “did not increase BALF cellularity compared to the vehicle”. In series [1], the “reducing kinetic for DTNB reduction compared with NAC and DTT” value was “faster reducing kinetic”; the “DTNB reducing kinetics” value is reported as “pH-dependent increase in reducing activity”. In series [1] (increasing concentrations of reducing agent, fixed concentration of DTNB and pH (7.0), FIG. 2), the “DTNB reduction kinetics as a function of reducing agent to DTNB ratio” value is recorded as “fastest reduction kinetics at all ratios of reducing agent to DTNB substrate”. Moreover, the “activity (ability to reduce DTNB) after incubation with hydrogen peroxide” value in series [2] is listed as “decreased the activity”. Further, on Muc5B, the “potency of mucus (Muc5B) reduction relative to NAC and DTT” value is “more potent”; the “concentration producing Muc5B (mucin) reduction by downward gel shift” value is on record as at least 1 mM.

In series [3], `CC(=O)N[C@@H](CS)C(=O)O` [NAC, N-acetyl cysteine, reference compound] gave a half-life of around 20 min. Further, the “DTNB reducing kinetics” value in series [1] is recorded as “pH-dependent increase in DTNB reduction”. The “concentration producing Muc5B (mucin) reduction by downward gel shift” value on Muc5B is reported as above 100 mM.
